Activity calls are given as the source filed them. The rule behind the calls is not given here.
What was measured:
B16-F10 [1] = assay: Induction of cell cycle arrest in mouse B16-F10 cells assessed as P21 protein accumulation at 0.31 to 1.25 uM after 24 hrs by Western blotting analysis; type: functional, cell-based; details: dose 0.31-1.25 µM
A-375 [2] = assay: Antiproliferative activity against human A-375 cells assessed as inhibition of cell growth at 0.31 uM after 72 hrs by MTT assay; type: functional; parameters: scale not given: the % may be the effect or the level left
B16-F10 [3] = assay: Inhibition of Wnt/beta-catenin signaling in mouse B16-F10 cells assessed as reduction in TCF4 expression at 1.25 uM preincubated with rosiglitazone for 24 hrs followed by compound addition and measured after 24 hrs in presence of H2O2; type: cell-based
A-375 [4] = assay: Induction of ROS generation in human A-375 cells assessed as reduction in PPARgamma expression level at 1.25 uM incubated for 24 hrs; type: functional, cell-based
B16-F10 [5] = assay: Inhibition of colony formation in mouse B16-F10 cells at less than 0.63 uM by crystal violet staining based assay; type: functional, cell-based
A-375 [6] = assay: Inhibition of cell migration in human A-375 cells after 24 hrs by transwell assay; type: functional, cell-based; details: dose 0.31-1.25 µM
B16-F10 [7] = assay: Induction of mitochondrial damage in mouse B16-F10 cells assessed as increase in ROS production measured upto 120 mins by DCFH-DA staining based flow cytometry analysis; type: functional, cell-based; details: dose 0.16-2.5 µM
A-375 [8] = assay: Inhibition of cell metastasis in human A-375 cells assessed as reduction in MMP2 protein level at 0.31 to 1.25 uM after 24 hrs by Western blotting analysis; type: functional, cell-based; details: dose 0.31-1.25 µM
A549 = assay: Antiproliferative activity against human A549 cells assessed as inhibition of cell growth at 0.31 uM after 72 hrs by MTT assay; type: functional; parameters: scale not given: the % may be the effect or the level left
[9] = Toxicity in C57BL/6J mouse inoculated with mouse B16-F10 cells assessed as reduction in body weight at 2 mg/kg, ip administered every other day and measured after 14 days; type: organism-based; parameters: scale not given: the % may be the effect or the level left; details: in vivo, 336 h, time 14 day
B16-F10 [10] = assay: Antitumor activity against mouse Dil-stained B16-F10 cells inoculated in zebrafish assessed as reduction in tumor growth by measuring tumor fluorescence intensity at 0.31 to 1.25 uM by confocal microscopy analysis; type: functional, cell-based; details: dose 0.31-1.25 µM
B16-F10 [11] = assay: Antiproliferative activity against mouse B16-F10 cells assessed as inhibition of cell growth at 0.31 uM after 72 hrs by MTT assay; type: functional; parameters: scale not given: the % may be the effect or the level left
[12] = Drug uptake in mouse B16-F10 cells mitochondria at 2.5 uM incubated for 25 mins by mito-tracker green dye based confocal laser scanning fluorescence microscopy analysis; type: ADME; details: b16-f10, 25 min
[13] = Cytotoxicity against human A-375 cells assessed as cell viability at 40 uM incubated for 24 hrs by MTT assay; type: toxicity, cell-based; details: read-out: Activity
A-375 [14] = assay: Antiproliferative activity against human A-375 cells assessed as inhibition of cell growth after 24 to 72 hrs by MTT assay; type: functional, cell-based
A-375 [15] = assay: Induction of cell cycle arrest in human A-375 cells assessed as reduction in cyclin E1 protein level at 0.31 to 1.25 uM after 24 hrs by Western blotting analysis; type: functional, cell-based; details: dose 0.31-1.25 µM
[16] = Toxicity in C57BL/6J mouse inoculated with mouse B16-F10 cells assessed as effect on liver morphology at 2 mg/kg, ip administered every other day for 22 days by H and E staining based assay; type: organism-based; details: in vivo, 528 h, time 22 day
B16-F10 [17] = assay: Antitumor activity against mouse B16-F10 cells inoculated in C57BL/6J mouse assessed as reduction in tumor volume at 0.5 to 2 mg/kg, ip administered every other day and measured on day 22; type: functional, organism-based; details: dose 0.5-2 mg/kg, time 22.0 day
[18] = Drug uptake in mouse B16-F10 cells assessed as fluorescence intensity at 2.5 uM incubated for 1 hr by confocal laser scanning microscopic analysis; type: ADME, cell-based; details: b16-f10, 1 h
A-375 [19] = assay: Inhibition of Wnt/beta-catenin signaling in human A-375 cells assessed as reduction in beta-catenin expression at 1.25 uM preincubated with rosiglitazone for 24 hrs followed by compound addition and measured after 24 hrs in presence of H2O2; type: cell-based
B16-F10 [20] = assay: Antiproliferative activity against mouse B16-F10 cells assessed as inhibition of cell growth after 24 to 72 hrs by MTT assay; type: functional, cell-based
A-375 [21] = assay: Induction of ROS generation in human A-375 cells assessed as reduction in SOD2 expression level at 0.31 to 1.25 uM incubated for 24 hrs; type: functional, cell-based; details: dose 0.31-1.25 µM
B16-F10 [22] = assay: Inhibition of ROS generation in mouse B16-F10 cells preincubated with rosiglitazone for 2 hrs followed by wash out and compound addition for 1 hr by DCFH-DA staining based inverted fluorescence microscopic analysis; type: functional, cell-based
B16-F10 [23] = assay: Inhibition of Wnt/beta-catenin signaling in mouse B16-F10 cells assessed as reduction in beta-catenin expression at 1.25 uM preincubated with rosiglitazone for 24 hrs followed by compound addition and measured after 24 hrs in presence of H2O2; type: cell-based
B16-F10 [24] = assay: Induction of mitochondrial damage in mouse B16-F10 cells assessed as increase in ROS production at 2.5 uM after 5 to 60 mins by DCFH-DA staining based flow cytometry analysis; type: functional, cell-based; details: time 5-60 min
A-375 [25] = assay: Inhibition of Wnt/beta-catenin signaling in human A-375 cells assessed as reduction in TCF4 expression at 1.25 uM preincubated with rosiglitazone for 24 hrs followed by compound addition and measured after 24 hrs in presence of H2O2; type: cell-based
B16-F10 [26] = assay: Antitumor activity against mouse B16-F10 cells inoculated in C57BL/6J mouse assessed as reduction in tumor growth at 0.5 to 2 mg/kg, ip administered every other day and measured on day 22; type: functional, organism-based; details: dose 0.5-2 mg/kg, time 22.0 day
A-375 [27] = assay: Induction of cell cycle arrest in human A-375 cells assessed as reduction in Cdk2 protein level at 0.31 to 1.25 uM after 24 hrs by Western blotting analysis; type: functional, cell-based; details: dose 0.31-1.25 µM
B16-F10 [28] = assay: Inhibition of ROS generation in mouse B16-F10 cells at 1.25 uM preincubated with rosiglitazone for 2 hrs followed by wash out and compound addition for 1 hr by DCFH-DA staining based inverted fluorescence microscopic analysis; type: functional; parameters: scale not given: the % may be the effect or the level left
B16-F10 [29] = assay: Induction of cell cycle arrest in mouse B16-F10 cells assessed as reduction in cyclin E1 protein level at 0.31 to 1.25 uM after 24 hrs by Western blotting analysis; type: functional, cell-based; details: dose 0.31-1.25 µM
B16-F10 [30] = assay: Antitumor activity against mouse B16-F10 cells inoculated in C57BL/6J mouse assessed as reduction in tumor weight at 0.5 to 2 mg/kg, ip administered every other day and measured on day 22; type: functional, organism-based; details: dose 0.5-2 mg/kg, time 22.0 day
B16-F10 [31] = assay: Antitumor activity against mouse B16-F10 cells inoculated in C57BL/6J mouse assessed as reduction in PPARgamma expression at 0.5 to 2 mg/kg, ip administered every other day and measured on day 22 by immunohistochemistry analysis; type: functional, organism-based; details: dose 0.5-2 mg/kg, time 22.0 day
[32] = Drug uptake in human HeLa cells assessed as fluorescence intensity at 2.5 uM incubated for 1 hr by confocal laser scanning microscopic analysis; type: ADME, cell-based
[33] = Drug uptake in human A549 cells assessed as fluorescence intensity at 2.5 uM incubated for 1 hr by confocal laser scanning microscopic analysis; type: ADME, cell-based; details: a549, 1 h
[34] = Toxicity in mouse inoculated with mouse B16-F10 cells assessed as change in body weight at 2 mg/kg, ip administered every other day and measured on day 18; type: organism-based; details: in vivo, 432 h, time 18 day

SMILES: CC[N+]1=C(/C=C/C2=C(Cl)C(=C/C=C3\N(CCCCCC(=O)O/C(=N/C4CCCCC4)NC4CCCCC4)c4ccccc4C3(C)C)/CCC2)C(C)(C)c2ccccc21.[Br-]
- Activity (B16-F10 [1]): Active
- Activity (A-375 [2]): 70%
- Activity (B16-F10 [3]): inactive
- Activity (A-375 [4]): Active
- inhibition (B16-F10 [5]): Active
- inhibition (A-375 [6]): Dose-Dependent Effect
- Activity (B16-F10 [7]): Dose-Dependent Effect
- inhibition (A-375 [8]): Active
- Activity (A549): 70%
- Activity [9]: 13.5%
- Activity (B16-F10 [10]): Active
- Activity (B16-F10 [11]): 70%
- Drug uptake [12]: Active
- viability at 24 h, 40 µM [13]: 90%
- IC50 (A-375 [14]): 180 nM
- Activity (A-375 [14]; time 24-72 hrs): Dose-Dependent Effect
- Activity (A-375 [15]): Active
- Activity [16]: Non-Toxic
- Activity (B16-F10 [17]): Active
- Drug uptake [18]: Active
- inhibition (A-375 [19]): inactive
- IC50 (B16-F10 [20]): 410 nM
- Activity (B16-F10 [20]; time 24-72 hrs): Dose-Dependent Effect
- Activity (A-375 [21]): Active
- Activity (B16-F10 [22]): Dose-Dependent Effect
- inhibition (B16-F10 [23]): inactive
- Activity (B16-F10 [24]): Active
- inhibition (A-375 [25]): inactive
- Activity (B16-F10 [26]): Active
- Activity (A-375 [27]): Active
- Activity (B16-F10 [28]): >50%
- Activity (B16-F10 [29]): Active
- Activity (B16-F10 [30]): Active
- Activity (B16-F10 [31]): Active
- Drug uptake [32]: Active
- Drug uptake [33]: Active
- Activity [34]: Non-Toxic
